From PubChem BioAssay (NCI)
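The compound was tested at five concentrations on cells cultured in 96-well plates, with a 48-hour exposure period. At the GI50, growth is halved. TGI marks complete inhibition of growth.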

Test system: MDA-MB-468 breast
Experiment: inhibition of tumour cell growth, NCI panel, 48 h

c1ccc(-c2[nH]ncc2-c2ccnc(-c3ccc(OCCN4CCOCC4)cc3)c2)nc1
GI50: > 25 µM | TGI: > 25 µM

O=C(/C=C/c1ccccc1)c1cccc2ccccc12
GI50: 2 µM | TGI: 5.64 µM

Cc1nc2sc(C(=O)Nc3cccc(Br)c3C)c(N)c2cc1C(O)c1ccccc1 (centres undefined)
GI50: 0.0398 µM | TGI: 26 µM

COC(=O)[C@H](Cc1cn(C)cn1)NC(=O)[C@H](CC(=O)OCc1ccccc1)NC(=O)Nc1cc(C(F)(F)F)cc(C(F)(F)F)c1
GI50: 2.1 µM | TGI: 6.55 µM

O=C(O)CCC(c1ccccc1)(c1ccccc1)c1ccccc1
GI50: 57.9 µM | TGI: > 100 µM

Cn1ncc(C#N)c1-c1ccc2c(c1)CN([C@H](CN)Cc1cccc(F)c1)C2=O
GI50: 0.105 µM | TGI: 2.97 µM

CCOc1cc(-c2nncn2C)ccc1Nc1ncc2cc(C)nc(NCC(C)(C)C)c2n1
GI50: > 20.2 µM | TGI: > 100 µM

C=C1C(=O)O[C@H]2[C@H]1CC/C(COC(=O)c1cccnc1N)=C\CC[C@@]1(C)O[C@@H]21
GI50: 0.958 µM | TGI: 4.18 µM

CN(C)c1ccc(/C=C(\C#N)c2cc3ccccc3[nH]2)cc1
GI50: 0.373 µM | TGI: 4.2 µM

COC(=O)c1c[nH]c2cc(OC(C)C)c(OC(C)C)cc2c1=O
GI50: > 100 µM | TGI: > 100 µM

CC[C@@H](C)/C=C(C)/C=C/C(=O)c1c(O)c(-c2ccc(OC(=O)[C@@]34CC[C@@](C)(C(=O)O3)C4(C)C)cc2)cn(O)c1=O
GI50: 1.32 µM | TGI: 10.8 µM

COc1cc2c(cc1OC)C(C(CCCCCC(CCC(C)C)C1NCCc3cc(OC)c(OC)cc31)CCC(C)C)NCC2 (centres undefined)
GI50: 0.588 µM | TGI: 1.25 µM

Cc1ccc(/C=N/NC(=O)c2ccccc2Oc2ccccc2)o1
GI50: 19.6 µM | TGI: 65.7 µM

O=C(Nc1ccncc1)C(=O)c1cn(S(=O)(=O)c2cccc(Cl)c2)c2ccccc12
GI50: 0.763 µM | TGI: 45.3 µM

COc1ccc(Cn2cc(COc3cc(/C=C/C(=O)c4cc(OC)c(OC)c(OC)c4)ccc3OC)nn2)cc1
GI50: 2.05 µM | TGI: 7 µM

Cn1c(CCCC(=O)O)nc2cc(N(CCCl)CCCl)ccc21
GI50: 17.1 µM | TGI: > 100 µM

CCCCC(=O)N(c1ccc(Nc2c3ccccc3nc3cc([N+](=O)[O-])ccc23)cc1)S(C)(=O)=O
GI50: 0.433 µM | TGI: 5.7 µM

COC(=O)[C@]12CC[C@@H](C)[C@H](C)[C@@H]1C1=CC[C@@H]3[C@@]4(C)C(C=O)=C[C@@](C)(CO)[C@@H]4[C@H](O)C[C@@]3(C)[C@]1(C)CC2
GI50: 4.36 µM | TGI: 18.9 µM

NCCCNc1nc2ccccc2c2c(=O)c3cc(F)ccc3sc12
GI50: 1.2 µM | TGI: 2.59 µM

C#C[C@@]1(O)[C@@H](CO)O[C@@H](n2cc(Br)c3c(Cl)ccnc32)[C@@H]1O
GI50: 0.836 µM | TGI: > 31.6 µM

C/C=C/c1cc2c(cc1O)CC[C@@H]1[C@@H]2CC[C@]2(C)[C@@H](O)CC[C@@H]12
GI50: 2.99 µM | TGI: 17.1 µM

CN1CCN(CCCNC(=O)c2c3c(n4ccccc24)C(=O)c2ncccc2C3=O)CC1
GI50: 0.637 µM | TGI: 1.86 µM

CCc1nc(C)cn1C(=O)OCc1nc2nc(Cl)nc(N3CCOCC3)c2[nH]1
GI50: 0.925 µM | TGI: 2.46 µM

CN1CCC2(CC1)N=C(SCC(=O)Nc1cnc3ccccc3c1)C(c1ccc(Br)cc1)=N2
GI50: 1.76 µM | TGI: 3.5 µM

C[C@@H](Nc1cc(F)cc(F)c1)c1cc(C(=O)N(C)C)cc2c(=O)cc(N3CCOCC3)oc12
GI50: 0.692 µM | TGI: 13.1 µM

COc1ccc(OC)c(Nc2nc3nonc3nc2Nc2cccc(Br)c2)c1
GI50: 0.343 µM | TGI: 3.88 µM

COc1ccc2c(C3=C(c4cn(C)c5ccccc45)C(=O)NC3=O)coc2c1
GI50: 0.278 µM | TGI: 3.48 µM

C=CCn1c2ccccc2c2c3c(c4c5ccccc5n(CC=C)c4c21)C(=O)N(O)C3=O
GI50: 3.88 µM | TGI: 41.9 µM

CC1=CC(=O)N(c2cccc3c(N4C(=O)C=C(C)C4=O)cccc23)C1=O
GI50: 2.09 µM | TGI: 5.51 µM

CCN1CCN(c2nc(C)cc(NCc3cc(Nc4ccnc5cc(Cl)ccc45)ccc3F)n2)CC1
GI50: 1.55 µM | TGI: 3.51 µM

CCN(CC)C1Oc2cc3c(cc2C(c2cc(OC)c(O)c(OC)c2)C1C)OCO3 (centres undefined)
GI50: 11.6 µM | TGI: 70.7 µM

COc1cccc2c1C(=O)c1c(O)c3c(c(O)c1C2=O)C[C@@](O)(/C(CO)=N/NC(=O)CCCCCN1C(=O)C=CC1=O)C[C@@H]3O[C@H]1C[C@H](N)[C@H](O)[C@H](C)O1
GI50: 0.438 µM | TGI: 2.75 µM

O=C1/C(=C\c2ccc(F)cc2)CN(C(=O)c2ccccc2F)C/C1=C\c1ccc(F)cc1
GI50: 1.51 µM | TGI: 3.4 µM

Brc1ccccc2cc(-c3ccccc3)nc1-2
GI50: 4.7 µM | TGI: > 56.6 µM

Cc1sc(C(=O)c2cncnc2N[C@@H]2C[C@H](COS(N)(=O)=O)[C@@H](O)C2)cc1[C@@H]1NCCc2ccc(Cl)cc21
GI50: 0.104 µM | TGI: 14.8 µM

Cc1ccc(C[As+](c2ccccc2)(c2ccccc2)c2ccccc2)cc1
GI50: 0.185 µM | TGI: 1.08 µM

NC(=O)c1c(NC(=O)c2cccs2)sc2c1CCC(=O)C2
GI50: 2.58 µM | TGI: 8.77 µM
